Here are results for one molecule from patent US20190307729A1, “ANTIMICROBIAL COMPOUNDS AND METHODS FOR USE THEREOF” (VERSITECH LIMITED, priority 2016, published 2019).

Structures are written as SMILES.

The test deals with B. cepacia. In words: Pigment formation (virulence suppression). In kind it is cell-based, Burkholderia cepacia.

With `O=C(O)CN1C(=O)C(=Cc2ccc(OCc3ccc(Cl)cc3)cc2)SC1=S` [Compound 82], the pigment formation entry is on record as “repressing the pigment formation”.
